Laboratory results from publication PMC10615754 (Molecular Psychiatry, 2023).

Legend:
hOCT3 [1] = molecular target: T1, hOCT3 (Homo sapiens, UniProt O75751); assay: Inhibition of [3H]MPP+ uptake into HEK293 cells stably expressing hOCT3; type: cell-based
T1 construct: expressed in transfected cells
T1 sequence (O75751 1-556): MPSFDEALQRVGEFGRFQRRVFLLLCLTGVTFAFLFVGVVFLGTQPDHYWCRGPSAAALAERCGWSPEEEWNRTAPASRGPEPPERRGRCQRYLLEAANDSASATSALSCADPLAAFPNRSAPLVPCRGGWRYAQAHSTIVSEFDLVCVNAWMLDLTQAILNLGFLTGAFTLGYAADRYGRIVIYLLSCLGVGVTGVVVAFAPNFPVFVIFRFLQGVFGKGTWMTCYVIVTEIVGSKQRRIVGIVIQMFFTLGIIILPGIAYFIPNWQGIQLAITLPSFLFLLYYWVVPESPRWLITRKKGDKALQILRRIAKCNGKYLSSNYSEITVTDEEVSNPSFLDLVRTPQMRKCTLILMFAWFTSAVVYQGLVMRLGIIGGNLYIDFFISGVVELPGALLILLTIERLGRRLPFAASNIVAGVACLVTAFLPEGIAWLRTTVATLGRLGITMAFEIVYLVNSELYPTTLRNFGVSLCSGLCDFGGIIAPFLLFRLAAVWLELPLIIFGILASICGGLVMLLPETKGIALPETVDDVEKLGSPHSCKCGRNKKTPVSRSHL
Experimental: Mechanically detached HEK293 cells grown to confluence in 4-5 ml flasks were suspended in 3-4 ml of media in a 15 ml polypropylene conical tube.
Cells were harvested on a Brandel 48 well harvester by vacuum filtration onto glass fiber filter strips (Brandel, Gaithersburg, MD, USA) pre-soaked in a 1% polyethalineamine saline solution. […] Protein concentration of the cell suspension was determined after solubilization in 1N NaOH against known concentrations of bovine serum albumen with Bradford reagent as for mouse brain homogenates.
Data Analysis: Experiments were performed in triplicate. Percent of total binding was calculated, and uptake kinetics determined with GraphPad Prism.

hOCT3 [2] = molecular target: T1, hOCT3; assay: Real-time uptake of fluorescent substrate ASP+ in YFP-hOCT3 HEK293 cells; type: cell-based; conditions: 3 µM ASP+
OCT3+/+ and OCT3-/- mice [3] = assay: Sensitization of locomotor activity during CPP conditioning sessions; type: in vivo; conditions: for Locomotor sensitization, first vs. 4th session Mean Difference: sexes pooled, ethanol 1 g/kg and/or cocaine […]
hDAT = hDAT (Homo sapiens, UniProt Q01959); conditions: 10 µM APP+
hSERT = hSERT (Homo sapiens, UniProt P31645); conditions: 10 µM cocaine, 10 µM APP+
hOCT3 [4] = molecular target: T1, hOCT3; parameters: method as in PMID 29773909; conditions: previously shown; cited from earlier work
OCT3 = tested on: OCT3; parameters: method as in PMID 29773909, PMID 16581093; conditions: at concentrations lower than 100 µM; cited from earlier work
[5] = tested on: DA clearance in dorsal striatum; assay: In vivo high-speed chronoamperometry of DA clearance in dorsal striatum; conditions: for EC50, half maximally effective amount to inhibit DA clearance (T80) / Emax, maximal inhibition of DA clearance (percent increase in T80): 2 min post-intrastriatal application; for Emax, maximal inhibition of DA clearance (percent increase in T80): 4-parameter logistic fit; for percent change in T20-60 value from baseline / percent change in peak amplitude of DA signal from baseline: dorsal striatum, 2 minutes following administration, mean and SEM; for Effect on DA clearance time (T80): intrastriatal application, ethanol ~0.5-10 mM, cocaine 1-10 µM at recording site, 2 min after drug
DAT = molecular target: T2, DAT (Mus musculus, UniProt Q61327); assay: Competition binding of [3H]WIN35,428 to DAT in mouse striatal homogenates
T2 construct: from tissue; host or cells: striatum of male SERT+/- mice
Experimental: (§1) Thus, in the current experiments, male constitutive SERT+/- mice weighing 25-30g were used, 3 per assay. […] Mice were euthanized by cervical dislocation without use of anesthesia to prevent anesthetic-induced attenuation of transporter binding sites. Whole hippocampi or striatum were harvested and placed in 30 ml of ice-cold buffer specific to each assay.
(§2) Tissue Collection and Preparation: Mice were humanely euthanized by cervical dislocation and decapitated without anesthesia to collect fresh brain tissues without compromising transporter binding properties. Striatum from each mouse were placed in a round 50 ml polycarbonate tube (Nalge Nunc, Rochester, NY, USA) containing 30 mM sodium phosphate and 0.32 M sucrose for DAT binding as in Reith and Coffey^16. […] All tissues were homogenized at 26,000 RPM for 1 min with a Polytron tissue homogenizer (Brinkman Instruments, Westbury, NY, USA). […] The supernate was discarded, and the pellet re-suspended in 25 ml buffer on ice using a Potter Elvehjem 10 ml glass and teflon homogenizer. The homogenate was re-centrifuged for 10 min at 36,000 x g.
The final pellet was re-suspended in 30 mM sodium phosphate and 0.32 M sucrose pH 7.4 at 4°C, and binding assays were carried out in duplicate for 2 hours at 4°C.
Labeled homogenates were captured through filtration under vacuum onto glass fiber filters pre-soaked in 0.5% polyethyleneimine (Sigma) on a Brandel tissue harvester (Gaithersburg, MD). Filters were washed twice more with 4 ml of buffer.
(§3) Data Analysis: Binding data were analyzed using non-linear regression curve fitting with GraphPad Prism (La Jolla, CA, USA).

OCT3+/+ and OCT3-/- mice [6] = assay: Conditioned place preference (CPP); type: in vivo; conditions: ethanol 1 g/kg + cocaine […] i.p.
Experimental: In the same procedure, sensitization of cocaine-induced locomotion (in the presence and absence of ethanol) was measured. Loss of righting reflex (LORR) was assessed as described previously [36].
For CPP and sensitization to the locomotor stimulant effects of these drugs, mice were injected i.p. with physiological saline, saline + EtOH (100 mg/kg), saline + cocaine (3.2 mg/kg), or EtOH (100 mg/kg) + cocaine (3.2 mg/kg) immediately prior to assay. […] For LORR behavioral assays, mice were injected i.p. with a sedative dose of EtOH, at 3.2 g/kg (base weight per kilogram body weight).
CPP. Conditioned place preference (CPP) in rodents, which is often used to model abuse-related drug effects, is shown by a preference for an environment previously paired with a drug compared with an environment previously paired with vehicle^31, 32. Mice were exposed to an unbiased, one-compartment place-conditioning procedure, with sessions conducted once per day (see^12, 13). […]
This analysis was followed with separate two-way ANOVAs to further probe sex*genotype and treatment*genotype interactions. […] There were no interaction or main effects of sex on sensitization, so male and female data were pooled for further analysis, in which effects of genotype and days were assessed separately for each drug treatment using two-way repeated measures ANOVA’s. […]

NET [7] = molecular target: T3, NET (Mus musculus, UniProt O55192); conditions: ethanol 3.4 nM up to 1 M, hippocampal homogenates
Experimental: as §1
Tissue Collection and Preparation: Mice were humanely euthanized by cervical dislocation and decapitated without anesthesia to collect fresh brain tissues without compromising transporter binding properties. Striatum from each mouse were placed in a round 50 ml polycarbonate tube (Nalge Nunc, Rochester, NY, USA) containing 30 mM sodium phosphate and 0.32 M sucrose for DAT binding as in Reith and Coffey^16. […] All tissues were homogenized at 26,000 RPM for 1 min with a Polytron tissue homogenizer (Brinkman Instruments, Westbury, NY, USA). […] The supernate was discarded, and the pellet re-suspended in 25 ml buffer on ice using a Potter Elvehjem 10 ml glass and teflon homogenizer. The homogenate was re-centrifuged for 10 min at 36,000 x g. […]
as §3

SERT = SERT (Mus musculus, UniProt Q60857); conditions: ethanol 3.4 nM up to 1 M, hippocampal homogenates
Experimental: as §1, §2
Radioligand binding to SERT was performed on hippocampal homogenates according to the procedure of D’Amato et al.^19. […]
as §3

hNET = hNET (Homo sapiens, UniProt P23975)
[8] = rats, systemic administration of 1 mg/kg of ethanol (i.p.); cited from earlier work
NET [9] = molecular target: T3, NET; parameters: from tissue; host or cells: hippocampus of male SERT+/- mice; method as in earlier work; conditions: known Kd from prior studies, used to calculate Ki; ref 20 (SI); read-out: Kd of hot ligand at NET; cited from earlier work

T2 sequence (Q61327 whole entry): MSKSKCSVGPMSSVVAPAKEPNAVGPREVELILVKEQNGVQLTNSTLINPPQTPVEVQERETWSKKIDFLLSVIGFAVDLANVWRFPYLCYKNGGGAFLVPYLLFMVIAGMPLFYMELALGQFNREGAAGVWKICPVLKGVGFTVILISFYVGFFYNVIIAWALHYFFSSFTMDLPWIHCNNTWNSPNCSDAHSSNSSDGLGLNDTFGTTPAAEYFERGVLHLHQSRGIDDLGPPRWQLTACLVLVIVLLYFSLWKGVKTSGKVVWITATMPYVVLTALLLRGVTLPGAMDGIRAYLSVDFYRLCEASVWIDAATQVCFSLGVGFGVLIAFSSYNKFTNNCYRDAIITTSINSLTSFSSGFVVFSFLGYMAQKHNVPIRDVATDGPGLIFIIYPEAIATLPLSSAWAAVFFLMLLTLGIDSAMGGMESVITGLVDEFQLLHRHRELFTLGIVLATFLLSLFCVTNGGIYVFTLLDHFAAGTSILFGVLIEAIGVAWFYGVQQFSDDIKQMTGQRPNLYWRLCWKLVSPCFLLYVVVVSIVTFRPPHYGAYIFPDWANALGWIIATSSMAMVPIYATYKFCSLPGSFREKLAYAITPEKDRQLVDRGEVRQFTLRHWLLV
T3 sequence (O55192 whole entry): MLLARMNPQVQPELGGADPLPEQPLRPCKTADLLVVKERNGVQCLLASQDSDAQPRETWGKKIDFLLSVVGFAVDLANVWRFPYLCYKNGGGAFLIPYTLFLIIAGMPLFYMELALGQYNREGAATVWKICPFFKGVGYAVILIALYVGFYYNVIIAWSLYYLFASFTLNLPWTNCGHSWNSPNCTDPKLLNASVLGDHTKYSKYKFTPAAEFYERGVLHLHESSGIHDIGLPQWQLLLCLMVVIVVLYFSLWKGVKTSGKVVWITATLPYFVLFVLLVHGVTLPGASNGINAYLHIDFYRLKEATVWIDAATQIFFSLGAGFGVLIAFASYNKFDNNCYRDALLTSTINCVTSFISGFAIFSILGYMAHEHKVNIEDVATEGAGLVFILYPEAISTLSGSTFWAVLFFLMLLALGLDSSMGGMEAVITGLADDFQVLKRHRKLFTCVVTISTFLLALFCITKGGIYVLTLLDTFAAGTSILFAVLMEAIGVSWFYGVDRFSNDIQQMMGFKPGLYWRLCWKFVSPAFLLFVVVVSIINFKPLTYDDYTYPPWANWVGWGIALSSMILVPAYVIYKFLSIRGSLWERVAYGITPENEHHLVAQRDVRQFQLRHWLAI
hDAT, sequence (Q01959 whole entry): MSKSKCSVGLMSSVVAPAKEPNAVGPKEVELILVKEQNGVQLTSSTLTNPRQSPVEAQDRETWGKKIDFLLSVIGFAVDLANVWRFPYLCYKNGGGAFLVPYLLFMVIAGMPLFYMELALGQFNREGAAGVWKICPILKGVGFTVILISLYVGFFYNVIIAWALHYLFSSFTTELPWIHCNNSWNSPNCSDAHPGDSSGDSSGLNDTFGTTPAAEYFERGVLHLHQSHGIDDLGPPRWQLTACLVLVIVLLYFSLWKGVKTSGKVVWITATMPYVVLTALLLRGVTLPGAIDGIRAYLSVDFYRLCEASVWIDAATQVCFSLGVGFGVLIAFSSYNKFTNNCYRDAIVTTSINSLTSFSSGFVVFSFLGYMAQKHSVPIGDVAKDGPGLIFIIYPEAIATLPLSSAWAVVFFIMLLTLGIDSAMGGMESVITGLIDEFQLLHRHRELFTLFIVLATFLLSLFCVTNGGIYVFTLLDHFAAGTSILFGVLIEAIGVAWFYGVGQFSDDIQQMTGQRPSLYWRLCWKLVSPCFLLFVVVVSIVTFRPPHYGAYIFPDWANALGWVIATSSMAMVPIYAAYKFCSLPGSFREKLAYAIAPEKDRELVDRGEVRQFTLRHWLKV
SERT, sequence (Q60857 whole entry): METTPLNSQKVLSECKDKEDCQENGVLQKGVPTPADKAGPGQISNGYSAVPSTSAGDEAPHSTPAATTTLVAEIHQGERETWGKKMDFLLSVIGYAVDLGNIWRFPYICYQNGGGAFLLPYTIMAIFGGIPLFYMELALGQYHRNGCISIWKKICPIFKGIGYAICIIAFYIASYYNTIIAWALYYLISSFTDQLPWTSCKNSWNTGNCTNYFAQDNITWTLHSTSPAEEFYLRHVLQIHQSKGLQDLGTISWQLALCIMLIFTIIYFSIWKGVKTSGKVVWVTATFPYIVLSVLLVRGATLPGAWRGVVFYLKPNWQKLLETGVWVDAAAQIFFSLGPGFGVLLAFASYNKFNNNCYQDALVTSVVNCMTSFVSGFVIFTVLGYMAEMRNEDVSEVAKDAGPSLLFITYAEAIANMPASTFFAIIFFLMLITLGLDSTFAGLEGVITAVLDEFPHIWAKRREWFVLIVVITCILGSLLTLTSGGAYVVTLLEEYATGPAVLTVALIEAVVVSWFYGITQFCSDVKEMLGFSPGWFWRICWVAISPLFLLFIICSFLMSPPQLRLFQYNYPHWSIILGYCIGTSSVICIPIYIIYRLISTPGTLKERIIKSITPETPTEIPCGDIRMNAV
hNET, sequence (P23975 whole entry): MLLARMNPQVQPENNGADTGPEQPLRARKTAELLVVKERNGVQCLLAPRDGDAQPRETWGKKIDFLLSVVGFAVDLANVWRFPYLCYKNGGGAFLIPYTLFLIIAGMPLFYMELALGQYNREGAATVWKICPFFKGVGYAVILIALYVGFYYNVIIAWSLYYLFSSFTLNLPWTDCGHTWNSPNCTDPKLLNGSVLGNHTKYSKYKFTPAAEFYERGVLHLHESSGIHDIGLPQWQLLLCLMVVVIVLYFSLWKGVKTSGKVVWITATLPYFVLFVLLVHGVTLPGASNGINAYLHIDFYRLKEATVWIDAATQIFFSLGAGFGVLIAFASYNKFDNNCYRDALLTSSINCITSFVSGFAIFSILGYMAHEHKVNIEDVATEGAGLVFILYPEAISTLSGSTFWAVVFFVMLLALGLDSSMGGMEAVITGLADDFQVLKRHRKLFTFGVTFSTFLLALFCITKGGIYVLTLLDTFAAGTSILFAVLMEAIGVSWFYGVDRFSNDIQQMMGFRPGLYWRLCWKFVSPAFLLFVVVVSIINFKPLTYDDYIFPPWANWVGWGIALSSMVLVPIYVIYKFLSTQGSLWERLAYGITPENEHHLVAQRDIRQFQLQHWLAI
hSERT, sequence (P31645 whole entry): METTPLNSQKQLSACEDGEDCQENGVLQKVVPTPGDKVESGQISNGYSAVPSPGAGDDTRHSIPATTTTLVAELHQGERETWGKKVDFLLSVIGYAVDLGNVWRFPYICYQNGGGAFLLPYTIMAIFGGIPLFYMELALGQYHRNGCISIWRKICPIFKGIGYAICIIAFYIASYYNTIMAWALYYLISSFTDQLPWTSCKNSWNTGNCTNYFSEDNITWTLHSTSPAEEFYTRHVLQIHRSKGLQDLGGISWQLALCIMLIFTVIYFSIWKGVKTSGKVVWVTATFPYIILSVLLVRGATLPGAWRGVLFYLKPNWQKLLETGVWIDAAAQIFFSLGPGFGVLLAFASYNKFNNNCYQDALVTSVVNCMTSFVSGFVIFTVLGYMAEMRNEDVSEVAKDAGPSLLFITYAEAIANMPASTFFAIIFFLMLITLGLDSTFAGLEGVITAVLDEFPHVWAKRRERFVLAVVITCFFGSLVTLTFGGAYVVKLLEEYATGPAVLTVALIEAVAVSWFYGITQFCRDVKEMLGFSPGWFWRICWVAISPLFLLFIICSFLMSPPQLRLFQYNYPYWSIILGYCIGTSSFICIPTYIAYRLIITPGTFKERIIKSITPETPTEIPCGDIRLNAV

Structure (SMILES): C[n+]1ccc(-c2ccccc2)cc1 [[^3H]MPP^+, 1-methyl-4-phenylpyridinium]
- Km (hOCT3 [1]; used to determine Ki values, read-out: Km for uptake in OCT3 over-expressing cells): 1000 µM

Structure (SMILES): C[C@]12C[C@H](O)[C@H]3[C@@H](CCC4=CC(=O)CC[C@@]43C)[C@@H]1CC[C@@H]2C(=O)CO [corticosterone]
- Block of ASP+ uptake (hOCT3 [2]; 10 µM corticosterone): fully blocked uptake of ASP^+

Structure (SMILES): COC(=O)[C@H]1[C@@H](OC(=O)c2ccccc2)C[C@@H]2CC[C@H]1N2C [cocaine]
- Locomotor sensitization, first vs. 4th session Mean Difference (OCT3+/+ and OCT3-/- mice [3]; OCT3+/+ mice): -9.84
- Locomotor sensitization, first vs. 4th session Mean Difference (OCT3+/+ and OCT3-/- mice [3]; OCT3-/- mice): -31.91
- Block of APP+ uptake into hDAT HEK293 cells (hDAT; 10 µM cocaine): blocked APP^+ uptake
- Block of APP+ uptake into hSERT HEK293 cells (hSERT): blocked APP^+ uptake
- Block of fluorescent substrate uptake in hOCT3 HEK293 cells (hOCT3 [4]): does not block fluorescent substrate uptake
- Activity at OCT3 (OCT3): does not have activity at OCT3
- EC50, half maximally effective amount to inhibit DA clearance (T80) ([5]; OCT3+/+ mice): 35 ± 9 pmol
- Emax, maximal inhibition of DA clearance (percent increase in T80) ([5]; OCT3+/+ mice): 150 ± 13%
- percent change in T20-60 value from baseline ([5]; OCT3+/+ mice): 140 ± 8 (16)**/^† percent
- percent change in peak amplitude of DA signal from baseline ([5]; OCT3+/+ mice): 109 ± 14 (16) percent
- Effect on DA clearance time (T80) ([5]; OCT3+/+ mice): inhibited DA clearance
- EC50, half maximally effective amount to inhibit DA clearance (T80) ([5]; OCT3-/- mice): 23 ± 16 pmol
- Emax, maximal inhibition of DA clearance (percent increase in T80) ([5]; OCT3-/- mice): 154 ± 15%
- percent change in T20-60 value from baseline ([5]; OCT3-/- mice): 148 ± 14 (15) percent
- percent change in peak amplitude of DA signal from baseline ([5]; OCT3-/- mice): 106 ± 16 (15) percent
- Effect on DA clearance time (T80) ([5]; OCT3-/- mice): inhibited DA clearance

Structure (SMILES): CCO [ethanol]
- Displacement of [3H]WIN35,428 binding to DAT (DAT; ethanol 3.4 nM up to 1 M, striatal homogenates): did not displace
- Ki (hOCT3 [1]; hOCT3 HEK293 cells, N = 5 replicate assays in triplicate): 4200 ± 200 µM
- Inhibition of ASP+ uptake (hOCT3 [2]; 30 mM ethanol, A.U.C. T80-150 s): ~ 50%
- Block of ASP+ uptake (hOCT3 [2]; 100 mM ethanol): fully blocked uptake of ASP^+
- Potentiation of CPP for cocaine by ethanol (OCT3+/+ and OCT3-/- mice [6]): did not potentiate CPP for cocaine
- Locomotor sensitization, first vs. 4th session Mean Difference (OCT3+/+ and OCT3-/- mice [3]; OCT3+/+ mice): −12.01
- Sensitization of locomotor activity (OCT3+/+ and OCT3-/- mice [3]; ethanol alone, OCT3+/+ and OCT3-/- mice): no ethanol-induced sensitization
- Displacement of [3H]nisoxetine binding to NET (NET [7]): did not displace
- Displacement of [3H]citalopram binding to SERT (SERT): did not displace
- Inhibition of APP+ uptake into hDAT HEK293 cells (hDAT; highest ethanol concentration tested (100 mM)): only modestly inhibited uptake
- Inhibition of APP+ uptake into hNET HEK293 cells (hNET): only modestly inhibited uptake
- Dialysate ethanol levels in the nucleus accumbens [8]: approximately 6 mM
- percent change in T20-60 value from baseline ([5]; OCT3+/+ mice): 123 ± 8 (14) percent
- percent change in peak amplitude of DA signal from baseline ([5]; OCT3+/+ mice): 80 ± 8 (14) percent
- Effect on DA clearance time (T80) ([5]; OCT3+/+ mice): increased T80 DA clearance time
- percent change in T20-60 value from baseline ([5]; OCT3-/- mice): 100 ± 6 (17)^###/$$ percent
- percent change in peak amplitude of DA signal from baseline ([5]; OCT3-/- mice): 70 ± 8 (17) percent
- Effect on DA clearance time (T80) ([5]; OCT3-/- mice): did not inhibit DA clearance

Structure (SMILES): COC(=O)[C@H]1[C@@H](c2ccc(F)cc2)C[C@@H]2CC[C@H]1N2C [[^3H]WIN35,428]
- Kd (DAT; saturation assays on striatum of 5 C57BL/6J mice, used to calculate Ki, read-out: Kd of hot ligand at DAT): 0.0078 µM

Structure (SMILES): Fc1ccc(C(OCCN2CCN(CCCc3ccccc3)CC2)c2ccc(F)cc2)cc1 [GBR12909]
- Ki (DAT; 2.7 nM [3H]WIN35,428, striatal homogenates, mean (95% CI), N = 3 mice, read-out: Ki for displacement of [3H]WIN35,428 binding to DAT): 0.001 µM

Structure (SMILES): CNCCC(Oc1ccccc1OC)c1ccccc1 (stereo not drawn) [[^3H]Nisoxetine]
- Kd (NET [9]): 0.0025 µM
